The source of these data is US20100173917A1, “UREA DERIVATIVES AS ABL MODULATORS” (Ambit Biosciences Corporation, priority 2003, published 2010).

Some results are limits rather than exact numbers.

In one experiment the target is T1, ABL1(DKIN) (Homo sapiens, UniProt P00519).
T1 construct: ABL1(DKIN); fused on or other part: Fused to T7 bacteriophage particles (phage display)
Briefly: Phage-display competition binding assay (Kd), ABL1(DKIN). The text has this: (§1) The term “ND” represents non-determined values.

A further experiment concerns the target T2, ABL1(T3151) (Homo sapiens, UniProt P00519, T315I).
T2 construct: made in house; host or cells: T7 bacteriophage display
Briefly: Phage-display competition binding assay (Kd), ABL1(T3151).
Text: as §1

The target in another experiment is T3, ABL1(E255K) (Homo sapiens, UniProt P00519, E255K).
T3 construct: made in house; host or cells: T7 bacteriophage display
The experiment is described as follows: Phage-display competition binding assay (Kd), ABL1(E255K).
Text: as §1

In the next experiment the target is T4, ABL1(E274K) (Homo sapiens, UniProt P00519, E255K).
T4 construct: made in house; host or cells: T7 bacteriophage display
Briefly: Phage-display competition binding assay (Kd), ABL1(E274K).
Text: as §1

The target of another experiment is T5, ABL1(Q252H) (Homo sapiens, UniProt P00519, Q252H).
T5 construct: made in house; host or cells: T7 bacteriophage display
Briefly: Phage-display competition binding assay (Kd), ABL1(Q252H).
Text: as §1

The next experiment has as its target T6, ABL1(H396P) (Homo sapiens, UniProt P00519, H396P).
T6 construct: made in house; host or cells: T7 bacteriophage display
Briefly: Phage-display competition binding assay (Kd), ABL1(H396P).
Text: as §1

A further experiment has as its target T7, ABL1(Y253F) (Homo sapiens, UniProt P00519, Y253F).
T7 construct: made in house; host or cells: T7 bacteriophage display
Briefly: Phage-display competition binding assay (Kd), ABL1(Y253F).
Text: as §1

The term Kd denotes the free concentration of one partner at which half of the binding sites on the other are occupied at equilibrium, for simple one-to-one binding. Regarding `COc1ccc(NC(=O)Nc2cc(C(C)(C)C)no2)cc1` [Compound A30], at ABL1(DKIN), the Kd was greater than 10 µM.
On the same count and under the same terms, as for `CC(C)(C)c1cc(NC(=O)Nc2ccc(Br)cc2C(F)(F)F)no1` [Compound A41], the figure is greater than 10 µM.
Turning to `CC(C)(C)c1cc(NC(=O)Nc2ccc(OCCc3ccccn3)cc2)no1` [Compound G27], the Kd on ABL1(T3151) is 1 to 10 µM; on ABL1(E255K) it was greater than 10 µM.
At ABL1(E255K), `Cc1ncccc1C(=O)Nc1ccc(NC(=O)Nc2cc(C(C)(C)C)on2)cc1` [Compound N145] had a Kd greater than 10 µM.
Still for that read-out and setting: as for `CC(C)(C)c1cc(NC(=O)Nc2ccc(NC(=O)c3ccc4cccnc4n3)cc2)no1` [Compound N144], the figure is greater than 10 µM.
Turning to `CC(C)(C)c1cc(NC(=O)Nc2ccc(NC(=O)c3c4c(nc5ccccc35)CCCC4)cc2)no1` [Compound N140], the Kd at ABL1(T3151) is greater than 10 µM.
In the case of `Cc1[nH]c(C(=O)Nc2ccc(NC(=O)Nc3cc(C(C)(C)C)on3)cc2)c(C)c1CCC(=O)O` [Compound N39], on ABL1(E255K), the Kd is greater than 10 µM.
At ABL1(DKIN), `CSc1ccc(NC(=O)Nc2cc(C(C)(C)C)no2)cc1` [Compound A39] displayed a Kd greater than 10 µM.
Still for that read-out and setting: with `Cc1ccc(-n2nc(C(C)(C)C)cc2NC(=O)Nc2ccc(Br)cc2C(F)(F)F)cc1` [Compound H13] the figure was greater than 10 µM.
In turn, `CC(C)(C)c1cc(NC(=O)Nc2ccc(NC(=O)c3ccc4ccccc4n3)cc2)no1` [Compound N143] displayed a Kd at ABL1(E255K) greater than 10 µM.
In turn, `CC(C)(C)c1cc(NC(=O)Nc2ccc(Cl)cc2)on1` [Compound A32] gave a Kd on ABL1(DKIN) greater than 10 µM.
The molecule `CC(C)(C)c1csc(NC(=O)Nc2ccc(OCc3ccccc3)cc2)n1` [Compound G49] gave a Kd on ABL1(E255K) greater than 10 µM.
Turning to `CC(C)(C)c1cc(NC(=O)Nc2ccc(Br)cc2C(F)(F)F)on1` [Compound A26], the Kd at ABL1(DKIN) is greater than 10 µM.
Take `CC(C)(C)c1cc(NC(=O)Nc2ccc(C(=O)Nc3nccnc3N)cc2)no1` [Compound N157]: the Kd on ABL1(E274K) was greater than 10 µM.
As to `CC(C)(C)c1cc(NC(=O)Nc2ccc(OCCc3ccncc3)cc2)no1` [Compound G22], the Kd on ABL1(E255K) is greater than 10 µM.
`CC(C)(C)c1cc(NC(=O)Nc2ccc(NC(=O)c3cccc4nc5cc(O)cc(O)c5cc34)cc2)no1` [Compound N139]: the Kd on ABL1(T3151) was greater than 10 µM.
Consider `Cc1ccc(C(=O)Nc2ccc(NC(=O)Nc3cc(C(C)(C)C)on3)cc2)cn1` [Compound N142], for which the Kd at ABL1(E255K) is greater than 10 µM.
For `Cc1ccc(C(=O)Nc2ccc(NC(=O)Nc3nc(C(C)(C)C)cs3)cc2)cc1` [Compound N135], the Kd on ABL1(T3151) and on ABL1(E255K) was greater than 10 µM in each case.
Molecule `COC(=O)c1cccc(Sc2ncc(NC(=O)Nc3cc(C(C)(C)C)on3)s2)c1` [Compound O8] yielded a Kd on ABL1(T3151) of 0.1 to 1 µM.
With `COc1cc2ncnc(Nc3ccc(NC(=O)Nc4cc(C(C)(C)C)on4)cc3)c2cc1OC` [Compound O5], the Kd was 100 to 1000 nM on ABL1(Q252H); less than 0.1 µM at ABL1(DKIN); less than 0.1 µM at ABL1(T3151); 100 to 1000 nM on ABL1(H396P); 0.1 to 1 µM on ABL1(E255K); 100 to 1000 nM at ABL1(Y253F).
Regarding `COc1cc2nc(Cl)nc(Nc3ccc(NC(=O)Nc4cc(C(C)(C)C)on4)cc3)c2cc1OC` [Compound O1, 1-(4-(2-chloro-6,7-dimethoxyquinazolin-4-ylamino)phenyl)-3-(5-tert-butylisoxazol-3-yl)urea], the Kd on ABL1(Q252H) is 1000 to 10000 nM; on ABL1(T3151), 1 to 10 µM; on ABL1(H396P), greater than 10000 nM; on ABL1(E255K) it was greater than 10 µM; at ABL1(Y253F), greater than 10000 nM.
At ABL1(DKIN), `CC(C)(C)c1cc(NC(=O)Nc2ccc(Cl)c(C(F)(F)F)c2)no1` [Compound A1, 1-(5-tent-butylisoxazol-3-yl)-3-(4-chloro-3-(trifluoromethyl)phenyl)urea] came in with a Kd greater than 10 µM.
Still for that read-out and setting: as for `CC(C)(C)c1cc(NC(=O)Nc2ccc(NC(=O)Cc3sc(-c4ccc(Cl)cc4)nc3-c3ccccc3)cc2)no1` [Compound N66], the figure is 0.1 to 1 µM.
Molecule `CC(C)(C)c1cc(NC(=O)Nc2ccc(OCCCc3ccncc3)cc2)no1` [Compound G1, 1-(4-(3-(pyridin-4-yl)propoxy)phenyl)-3-(5-tert-butylisoxazol-3-yl)urea] returned a Kd at ABL1(E255K) greater than 10 µM.
`CC(C)(C)c1cc(NC(=O)Nc2ccc(NC(=O)c3ccnc4ccccc34)cc2)no1` [Compound N141] registered a dissociation constant (Kd) on ABL1(E255K) greater than 10 µM.
